Results taken from patent US20150087657A1, “MULTICOMPONENT CRYSTALLINE SYSTEM OF VORICONAZOLE WITH FUMARIC ACID” (BASF SE, priority 2011, published 2015).
≈ marks a conversion by molar mass, not a printed value.

Assay: Solubility determination of vrx and vrx-co-crystals in water
Assay type: physicochemical
Conditions: 37° C.
Procedure: Solubility determinations of the vrx (free drug substance), the vrx-fumaric acid co-crystal and the vrx-L-tartaric acid co-crystal described in the below comparative example are carried out as follows. To 20 mg of a solid sample, 5.0 ml water is added and the mixture is placed on a laboratory shaker at 500 rpm at 37° C. After 24 hours, a small sample of about 1.0 ml is recovered with a syringe and filtered through a 0.1 micrometer PVDF Millipore filtration unit. This sample is appropriately diluted and the concentration is determined by HPLC.

Compound	aqueous solubility higher than the free drug substance and the L-tartaric acid co-crystal (24 h, relative to table 4 comparators)	Solubility of Voriconazole (equilibration time 24 h, 20 mg solid in 5.0 ml, HPLC, value refers to Voriconazole)	solubility at 24 h (thermodynamic from solid, equilibration time 24 h, 20 mg solid in 5.0 ml, HPLC, value refers to Voriconazole)
CC(c1ncncc1F)C(O)(Cn1cncn1)c1ccc(F)cc1F.O=C(O)C=CC(=O)O (stereo not drawn) [Co-crystal with fumaric acid]	about 30%	1300 µg/mL	–
C[C@@H](c1ncncc1F)[C@](O)(Cn1cncn1)c1ccc(F)cc1F [Voriconazole free drug, (2R,3S)-2-(2,4-difluorophenyl)-3-(5-fluoropyrimidin-4-yl)-1-(1H-1,2,4-triazol-1-yl)butan-2-ol, reference compound]	–	–	1010 µg/mL (≈ 2890 µM)
